Values of other authors in patent US20250255804A1, “LIQUID INJECTABLE COMPOSITIONS OF LURBINECTEDIN” (DR. REDDY’S LABORATORIES LIMITED, priority 2024, published 2025).

Conditions: solubility increases at acidic pH

For COc1ccc2[nH]c3c(c2c1)CCN[C@]31CS[C@@H]2c3c(OC(C)=O)c(C)c4c(c3[C@H](COC1=O)N1[C@@H]2[C@H]2c3c(cc(C)c(OC)c3O)C[C@@H]([C@@H]1O)N2C)OCO4 [lurbinectedin, Lurbinectedin], the solubility in water is listed as “insoluble or practically insoluble in water”.
